Laboratory results as given in patent publication US9409864B2, “Sulfonamide TRPA1 receptor antagonists” (ARIO PHARMA LIMITED, priority 2013, dated 2016).
Like-named read-outs stand apart in the source and are kept apart here.

Tests used:
[1] = biological target: T1, native human TRPA1 receptors (Homo sapiens, UniProt O75762); experiment: PF-4840154 (1 μM)-induced Ca2+ fluorescence measurements in A549 cell line; assay type: cell-based; settings: for inhibition at 10 µM: 10 μM compound against 1 μM PF-4840154, A549 cells; for IC50: against PF-4840154 (1 μM)-evoked [Ca2+]i mobilization, A549 cells
T1 construct: stably expressing native human TRPA1 receptors were used; endogenous in cells; host or cells: A549 human lung adenocarcinoma epithelial cell line
Summary of the method: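 A549 cells stably expressing native human TRPA1, Fluo-4 AM loaded; fluorescence Ca2+ read in HBSS with probenecid and Brilliant Black at 36.5 °C. Compounds tested alone for agonism and against 1 μM PF-4840154 for inhibition at initial 10 μM; IC50 from full concentration-response curves for selected compounds.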

[2] = system: PF-4840154-induced mechanical hyperalgesia in rats; experiment: Agonist (PF-4840154)-induced mechanical hyperalgesia in rats; assay type: in vivo; settings: Rattus norvegicus, 30 μmol/kg oral, PF-4840154 0.05 nmol/50 μl/paw intraplantar
Description: Agonist (PF-4840154)-Induced Mechanical Hyperalgesia in Rats
The method is used to investigate the anti-hyperalgesic effects of the compounds listed in the present invention following agonist (PF-4840154)-induced hyperalgesic responses. The activity is indicative of TRPA1 receptor occupancy following oral dosing. Specifically, male SD rats (Charles River, Italy) weighing 70-100 g. were used. The anti-hyperalgesic effects were investigated using the electronic dynamometer test. PF-4840154 (Sigma, USA) was used to induce mechanical hyperalgesia. Local, intraplantar injection of PF-4840154 at 0.05 nmol/50 μl/paw caused the reduction of the hind paw withdrawal response induced by mechanical stimuli. Mechanical stimulation was induced in basal condition and 30, 60, 120, 180 and 240 minutes after the oral administration of the antagonists dissolved in 2.5% DMSO and 30% Solutol. Compounds were orally administered (30 μmol/kg/10 ml) to rats 1 hour before the injection of PF-4840154 into the plantar surface of a rat's hind using a micro syringe.

[3] = system: oxaliplatin-induced mechanical hyperalgesia in rats; experiment: Oxaliplatin-induced mechanical hyperalgesia in rats; assay type: in vivo; settings: Rattus norvegicus, 168 h, 30 μmol/kg oral, 7 days post i.v. oxaliplatin 2.5 mg/kg
Description: Oxaliplatin-Induced Mechanical Hyperalgesia in Rats
The method described by Nassini et al. (Pain, 2011, 152(7), 1621-31) was used with minor modifications. Restrained rats were treated with a single intravenous bolus injection of oxaliplatin (2.5 mg/kg) dissolved in normal saline. This approach was sufficient to elicit reproducible allodynic behaviour evident 3 days post injection and during the day thereafter. For convenience all acute experiments were conducted 7 days post injection when compounds were orally administered at 30 μmol/kg.

[4] = biological target: T2, TRPA1 (cultured rat dorsal root ganglia neurons) (Rattus norvegicus, UniProt Q6RI86); experiment: PF-4840154 (10 μM)-induced Ca2+ fluorescence measurements in cultured rat dorsal root ganglia neurons; assay type: cell-based; settings: against 10 μM PF-4840154-induced [Ca2+]i mobilization, primary culture of rat dorsal ganglia neurons
T2 construct: calcium assay data obtained in primary culture of rat dorsal ganglia neurons; from tissue; host or cells: primary culture of dorsal root ganglia neurons from male SD rats
Description: PF-4840154 (10 μM)-Induced Ca^2+ Fluorescence Measurements in Cultured Rat Dorsal Root Ganglia Neurons
Male SD rats (˜50 g, Charles River, Italy) were terminally anaesthetized and decapitated. Dorsal root ganglia were removed and placed in cold Hank's balanced salt solution (HBSS) before being transferred to collagenase (2 mg/ml) and trypsin (1 mg/ml) for 35 min at 37° C. The ganglia, placed in cold DMEM supplemented with 10% fetal bovine serum, 10% horse serum, 2 mM L-glutamine, 100 U/ml penicillin and 100 μg/ml streptomycin, were dissociated in single cells by several passages through a series of syringe needles (23G down to 25G). The medium and the ganglia were filtered to remove debris, topped up with 4 ml of DMEM medium and centrifuged (1100 rpm for 6 min). The final cell pellet was re-suspended in DMEM medium [supplemented with 100 ng/ml mouse Nerve Growth Factor (mouse-NGF-7S) and cytosine-β-D-arabinofuranoside free base (ARA-C) 2.5 μM]. The cells were plated on poly-L-lysine (8.3 μM)- and laminin (5 μM)-coated 25 mm glass cover slips and kept for 2 days at 37° C. in a humidified incubator gassed with 5% CO2 and air, then treated with Fura-2-AM-ester (5 μM) in a Ca^2+ buffer solution having the following composition (mM): CaCl2 1.4, KCl 5.4, MgSO4 0.4, NaCl 135, D-glucose 5, HEPES 10 with BSA (0.1%), at pH 7.4, for 40 min at 37° C. The cells were then washed twice with the Ca^2+ buffer solution and transferred to a chamber on the stage of a Nikon eclipse TE300 microscope. Fura-2-AM-ester was excited at […] to indicate relative [Ca^2+]i changes by the F340/F380 ratio recorded with a dynamic image analysis system (Laboratory Automation 2.0, RCS, Florence, Italy) and the cells were allowed (at least 10 min) to attain a stable fluorescence before beginning the experiment. A calibration curve was set up using buffer containing Fura-2-AM-ester and determinant concentrations of free Ca^2+. This curve was then used to convert the data obtained from the F340/F380 ratio to [Ca^2+]i (nM).
All exemplified compounds were tested at the concentration of 10 μM against the calcium uptake induced by 10 μM PF-4840154. For selected examples, the entire concentration response curves were constructed and the respective IC50 value calculated.

[5] = read-out: % of reversal of mechanical allodynia
[6] = read-out: Maximal inhibition (%)

T1 sequence (O75762 whole entry): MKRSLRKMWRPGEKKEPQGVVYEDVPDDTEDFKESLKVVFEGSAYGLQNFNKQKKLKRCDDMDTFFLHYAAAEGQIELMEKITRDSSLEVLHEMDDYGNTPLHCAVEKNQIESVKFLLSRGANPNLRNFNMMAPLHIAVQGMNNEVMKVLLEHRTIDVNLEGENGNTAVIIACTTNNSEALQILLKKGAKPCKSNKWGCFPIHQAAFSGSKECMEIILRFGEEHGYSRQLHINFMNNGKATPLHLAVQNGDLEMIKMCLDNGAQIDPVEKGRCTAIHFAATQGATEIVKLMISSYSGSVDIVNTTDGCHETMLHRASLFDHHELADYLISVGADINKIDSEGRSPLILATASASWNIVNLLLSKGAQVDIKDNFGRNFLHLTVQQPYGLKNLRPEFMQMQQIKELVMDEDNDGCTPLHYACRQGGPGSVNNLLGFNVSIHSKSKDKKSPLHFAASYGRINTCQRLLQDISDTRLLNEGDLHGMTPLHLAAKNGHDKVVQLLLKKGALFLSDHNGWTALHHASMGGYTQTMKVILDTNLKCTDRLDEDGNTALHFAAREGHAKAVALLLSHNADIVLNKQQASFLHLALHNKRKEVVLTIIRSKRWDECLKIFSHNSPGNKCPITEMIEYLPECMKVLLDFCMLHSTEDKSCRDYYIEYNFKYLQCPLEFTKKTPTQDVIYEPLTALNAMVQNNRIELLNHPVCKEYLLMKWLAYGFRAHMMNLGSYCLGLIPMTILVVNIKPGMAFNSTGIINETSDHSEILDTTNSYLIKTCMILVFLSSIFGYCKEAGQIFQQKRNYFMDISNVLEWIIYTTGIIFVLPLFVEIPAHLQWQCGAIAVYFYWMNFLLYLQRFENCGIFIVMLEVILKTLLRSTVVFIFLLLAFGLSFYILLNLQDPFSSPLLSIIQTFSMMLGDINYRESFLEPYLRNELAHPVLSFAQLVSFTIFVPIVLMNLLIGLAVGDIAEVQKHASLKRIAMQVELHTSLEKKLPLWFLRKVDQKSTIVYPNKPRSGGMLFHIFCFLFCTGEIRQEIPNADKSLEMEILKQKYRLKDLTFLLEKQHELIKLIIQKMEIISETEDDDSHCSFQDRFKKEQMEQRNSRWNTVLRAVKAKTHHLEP
T2 sequence (Q6RI86 whole entry): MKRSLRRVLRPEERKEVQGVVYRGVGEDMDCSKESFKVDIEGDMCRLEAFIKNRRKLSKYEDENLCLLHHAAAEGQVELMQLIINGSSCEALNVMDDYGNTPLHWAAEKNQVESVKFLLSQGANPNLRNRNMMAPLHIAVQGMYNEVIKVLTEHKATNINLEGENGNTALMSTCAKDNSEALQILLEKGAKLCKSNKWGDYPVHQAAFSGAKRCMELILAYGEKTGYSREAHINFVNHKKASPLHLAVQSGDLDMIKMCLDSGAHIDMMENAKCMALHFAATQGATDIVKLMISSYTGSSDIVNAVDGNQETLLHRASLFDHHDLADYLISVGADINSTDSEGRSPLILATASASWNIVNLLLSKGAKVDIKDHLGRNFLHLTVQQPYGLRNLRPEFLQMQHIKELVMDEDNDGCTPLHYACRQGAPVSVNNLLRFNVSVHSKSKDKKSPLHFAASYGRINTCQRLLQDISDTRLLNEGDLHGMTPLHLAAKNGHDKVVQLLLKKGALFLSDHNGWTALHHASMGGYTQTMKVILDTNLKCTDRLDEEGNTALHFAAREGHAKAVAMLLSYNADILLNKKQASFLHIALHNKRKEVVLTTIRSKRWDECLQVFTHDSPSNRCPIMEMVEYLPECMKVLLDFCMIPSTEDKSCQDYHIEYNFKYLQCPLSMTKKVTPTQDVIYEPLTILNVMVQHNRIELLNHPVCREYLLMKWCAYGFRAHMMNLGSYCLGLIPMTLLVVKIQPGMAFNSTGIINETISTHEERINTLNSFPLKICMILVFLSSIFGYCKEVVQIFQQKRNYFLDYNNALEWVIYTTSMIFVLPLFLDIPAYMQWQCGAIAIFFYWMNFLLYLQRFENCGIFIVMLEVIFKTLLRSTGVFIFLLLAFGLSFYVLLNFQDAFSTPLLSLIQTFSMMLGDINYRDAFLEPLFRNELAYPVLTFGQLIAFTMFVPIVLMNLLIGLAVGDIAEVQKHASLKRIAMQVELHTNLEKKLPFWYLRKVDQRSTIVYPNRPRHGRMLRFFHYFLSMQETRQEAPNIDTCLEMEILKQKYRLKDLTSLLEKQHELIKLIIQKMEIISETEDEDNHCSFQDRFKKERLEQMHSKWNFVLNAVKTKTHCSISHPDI

| SMILES | inhibition at 10 µM [1] | IC50 [1] | inhibition in vivo at 30 µmol/kg [2, 5] | inhibition in vivo at 30 µmol/kg [2, 6] | inhibition in vivo at 30 µmol/kg [3, 5] | inhibition in vivo at 30 µmol/kg [3, 6] | IC50 [4] |
| --- | --- | --- | --- | --- | --- | --- | --- |
| CCN(C1(C(=O)NCc2cc(OC)nc(-c3ccc(C(F)(F)F)cc3)c2)CC1)S(=O)(=O)c1ccc(Cl)s1 [Example 50, 1-[(5-chloro-2-thienyl)sulfonyl-ethyl-amino]-N-[[2-methoxy-6-[4-(trifluoromethyl)phenyl]-4-pyridyl]methyl] cyclopropanecarboxamide] | 100% | 19 nM | 76% | 76% | 82% | 82% | – |
| C=C(C(=O)NCc1ccnc(-c2ccc(OC(F)(F)F)cc2)c1)N(CC)S(=O)(=O)c1ccc(Cl)s1 [Example 7, 2-[(5-chloro-2-thienyl)sulfonyl-ethyl-amino]-N-[[2-[4-(trifluoromethoxy)phenyl]-4-pyridyl]methyl]prop-2-enamide] | 100% | 36 nM | 74% | 74% | – | – | 29 nM |
| C=C(C(=O)NCc1cc(-c2ccc(C(F)(F)F)cc2)nc(N(C)C)c1)N(CC)S(=O)(=O)c1ccc(F)cc1 [Example 37, N-[[2-dimethylamino-6-[4-(trifluoromethyl)phenyl]-4-pyridyl]methyl]-2-[ethyl-(4-fluorophenyl)sulfonyl-amino]prop-2-enamide] | 100% | 18 nM | 95% | 95% | 82% | 82% | – |
| C=C(C(=O)NCc1cc(-c2ccc(C(F)(F)F)cc2)nc(N2CCCC2)c1)N(CC)S(=O)(=O)c1ccc(F)cc1 [Example 38, 2-[ethyl-(4-fluorophenyl)sulfonyl-amino]-N-[[2-pyrrolidin-1-yl-6-[4-(trifluoromethyl)phenyl]-4-pyridyl]methyl]prop-2-enamide] | 100% | 17 nM | 87% | 87% | – | – | 14 nM |
| CCN(C1(C(=O)NCc2cc(-c3ccc(C(F)(F)F)cc3)nc(N3CCCC3)c2)CC1)S(=O)(=O)c1ccc(Cl)s1 [Example 34, 1-[(5-chloro-2-thienyl)sulfonyl-ethyl-amino]-N-[[2-pyrrolidin-1-yl-6-[4-(trifluoromethyl)phenyl]-4-pyridyl]methyl]cyclopropanecarboxamide] | 100% | 25 nM | – | – | 71% | 71% | – |
| C=C(C(=O)NCc1cc(-c2ccc(C(F)(F)F)cc2)nc(N2CCCC2)c1)N(CC)S(=O)(=O)c1ccc(Cl)s1 [Example 15, 2-[(5-chloro-2-thienyl)sulfonyl-ethyl-amino]-N-[[2-pyrrolidin-1-yl-6-[4-(trifluoromethyl)phenyl]-4-pyridyl]methyl]prop-2-enamide] | 100% | 22 nM | 72% | 72% | – | – | 32 nM |
| C=C(C(=O)NCc1cc(OC)nc(-c2ccc(C(F)(F)F)cc2)c1)N(CC)S(=O)(=O)c1ccc(F)cc1 [Example 40, 2-[ethyl-(4-fluorophenyl)sulfonyl-amino]-N-[[2-methoxy-6-[4-(trifluoromethyl)phenyl]-4-pyridyl]methyl]prop-2-enamide] | 100% | 16 nM | – | – | 103% | 103% | – |
| CCOc1cc(CNC(=O)C2(N(CC)S(=O)(=O)c3ccc(Cl)s3)CC2)cc(-c2ccc(C(F)(F)F)cc2)n1 [Example 53, 1-[(5-chloro-2-thienyl)sulfonyl-ethyl-amino]-N-[[2-ethoxy-6-[4-(trifluoromethyl)phenyl]-4-pyridyl]methyl] cyclopropanecarboxamide] | 100% | 17 nM | 89% | 89% | 83% | 83% | – |
| C=C(C(=O)NCc1cc(-c2ccc(C(F)(F)F)cc2)nc(-c2ccc(C(F)(F)F)cc2)c1)N(CC)S(=O)(=O)c1ccc(Cl)cc1 [Example 19, N-[[2,6-bis[4-(trifluoromethyl)phenyl]-4-pyridyl]methyl]-2-[(4-chlorophenyl)sulfonyl-ethyl-amino]prop-2-enamide] | 100% | 74 nM | 74% | 74% | – | – | 68 nM |
| C=C(C(=O)NCc1cccc(-c2ccc(C(F)(F)F)cc2)c1)N(CC)S(=O)(=O)c1ccc(Cl)cc1 [Example 10, 2-[(4-chlorophenyl)sulfonyl-ethyl-amino]-N-[[3-[4-(trifluoromethyl)phenyl]phenyl]methyl]prop-2-enamide] | 99% | 25 nM | 63% | 63% | – | – | 47 nM |
| CCN(C1(C(=O)NCc2cc(-c3ccc(C(F)(F)F)cc3)nc(N3CCCC3)c2)CC1)S(=O)(=O)c1ccc(F)cc1 [Example 51, 1-[ethyl-(4-fluorophenyl)sulfonyl-amino]-N-[[2-pyrrolidin-1-yl-6-[4-(trifluoromethyl)phenyl]-4-pyridyl]methyl]cyclopropanecarboxamide] | 100% | 41 nM | 76% | 76% | 65% | 65% | – |
| CCN(C1(C(=O)NCc2cccc(-c3ccc(C(F)(F)F)cc3)c2)CC1)S(=O)(=O)c1ccc(Cl)s1 [Example 59, 1-[(5-chloro-2-thienyl)sulfonyl-ethyl-amino]-N-[[3-[4-(trifluoromethyl)phenyl]phenyl]methyl]cyclopropanecarboxamide] | 99% | 38 nM | 111% | 111% | 67% | 67% | – |
| C=C(C(=O)NCc1cccc(-c2ccc(OC(F)(F)F)cc2)c1)N(CC)S(=O)(=O)c1ccc(F)cc1 [Example 11, 2-[ethyl-(4-fluorophenyl)sulfonyl-amino]-N-[[3-[4-(trifluoromethoxy)phenyl]phenyl]methyl]prop-2-enamide] | 99% | 17 nM | 72% | 72% | – | – | 20 nM |
